PubChem BioAssay AID264 (DTP/NCI, 2004)
Values joined by “and” are separate entries in the source; they are usually repeats but may differ in a detail not shown here. Identical values can stand only once. Inconclusive results are not listed.

Tested on: nude mice, LX-1 lung xenograft intrarenal, tumor weight T/C
Test: NCI In Vivo Anticancer Drug Screen. Data for tumor model Human Lung LX-1 Xenograft (intrarenal inoculation) in NU/NU Swiss (nude) mice
Conditions: endpoint: mean tumor weight change, higher = larger tumour
Protocol: The antitumor activity of compounds was measured in mice bearing transplantable tumors. Survival or tumor size were measured and the results are expressed as the measurement made in the treated group (T) divided by the measurement made in the vehicle treated control group (C). The tumor model used in this assay is Human Lung LX-1 Xenograft (intrarenal inoculation) in NU/NU Swiss (nude) mice

[1] = dose: 200.0 mg/kg/injection, schedule: Q04DX003 (sc), vehicle: saline with Tween-80
[2] = dose: 400.0 mg/kg/injection, schedule: Q04DX003 (sc), vehicle: saline with Tween-80
[3] = dose: 800.0 mg/kg/injection, schedule: Q04DX003 (sc), vehicle: saline with Tween-80
[4] = dose: 12.5 mg/kg/injection, schedule: Q01DX010 (sc), vehicle: saline

Compound: O=C(C#Cc1ccccc1)c1ccccc1
- T/C (dose: 18.75 mg/kg/injection, schedule: Q04DX003 (sc), vehicle: Klucel (hydroxypropylcellulose) (HPC)): 87 % of control
- T/C (dose: 25.0 mg/kg/injection, schedule: Q04DX003 (sc), vehicle: Klucel (hydroxypropylcellulose) (HPC)): 111 % of control
- T/C (dose: 37.5 mg/kg/injection, schedule: Q04DX003 (sc), vehicle: Klucel (hydroxypropylcellulose) (HPC)): 96 % of control
- T/C (dose: 50.0 mg/kg/injection, schedule: Q04DX003 (sc), vehicle: Klucel (hydroxypropylcellulose) (HPC)): 90 % of control
- T/C (dose: 75.0 mg/kg/injection, schedule: Q04DX003 (sc), vehicle: Klucel (hydroxypropylcellulose) (HPC)): 105 % of control
- T/C (dose: 100.0 mg/kg/injection, schedule: Q04DX003 (sc), vehicle: Klucel (hydroxypropylcellulose) (HPC)): 113 % of control
- T/C (dose: 150.0 mg/kg/injection, schedule: Q04DX003 (sc), vehicle: Klucel (hydroxypropylcellulose) (HPC)): 65 % of control
- T/C (dose: 200.0 mg/kg/injection, schedule: Q04DX003 (sc), vehicle: Klucel (hydroxypropylcellulose) (HPC)): 81 % of control

Compound: NS(=O)(=O)OCCCCCCCOS(N)(=O)=O
- T/C (dose: 150.0 mg/kg/injection, schedule: Q04DX003 (ip), vehicle: saline with Tween-80): 109 % of control
- T/C (dose: 300.0 mg/kg/injection, schedule: Q04DX003 (ip), vehicle: saline with Tween-80): 123 % of control

Compound: CN(C)CCN1C(=O)c2cccc3cc([N+](=O)[O-])cc(c23)C1=O
- T/C (dose: 9.0 mg/kg/injection, schedule: Q04DX003 (sc), vehicle: saline with Tween-80): 94 % of control
- T/C (dose: 18.0 mg/kg/injection, schedule: Q04DX003 (sc), vehicle: saline with Tween-80): 108 % of control
- T/C (dose: 36.0 mg/kg/injection, schedule: Q04DX003 (sc), vehicle: saline with Tween-80): 95 % of control

Compound: C[n+]1c(/C=C\C=C\N2CCCCC2)sc2ccccc21
- T/C (dose: 1.5 mg/kg/injection, schedule: Q04DX003 (sc), vehicle: Klucel (hydroxypropylcellulose) (HPC)): 52 % of control
- T/C (dose: 3.0 mg/kg/injection, schedule: Q04DX003 (sc), vehicle: Klucel (hydroxypropylcellulose) (HPC)): 83 % of control

Compound: COc1ccc(-c2cc(C(=O)Nc3cc(C(F)(F)F)cc(C(F)(F)F)c3)c3ccccc3n2)cc1
- T/C (dose: 150.0 mg/kg/injection, schedule: Q04DX003 (ip), vehicle: DMSO): 75 % of control
- T/C (dose: 300.0 mg/kg/injection, schedule: Q04DX003 (ip), vehicle: DMSO): 104 % of control
- T/C (dose: 600.0 mg/kg/injection, schedule: Q04DX003 (ip), vehicle: DMSO): 68 % of control

Compound: CC(=O)OCC1OC([S-])C(OC(C)=O)C(OC(C)=O)C1OC(C)=O.CC[PH+](CC)CC.CC[PH+](CC)CC.[Au].[Au] (stereo unspecified)
- T/C (dose: 3.12 mg/kg/injection, schedule: Q04DX003 (sc), vehicle: Klucel (hydroxypropylcellulose) (HPC)): 110 % of control
- T/C (dose: 6.25 mg/kg/injection, schedule: Q04DX003 (sc), vehicle: Klucel (hydroxypropylcellulose) (HPC)): 88 % of control
- T/C (dose: 12.5 mg/kg/injection, schedule: Q04DX003 (sc), vehicle: Klucel (hydroxypropylcellulose) (HPC)): 75 % of control

Compound: COC1=C(OC)C(=O)C(Sc2ccc3ccccc3c2)=CC1=O
- T/C (dose: 75.0 mg/kg/injection, schedule: Q04DX003 (sc), vehicle: saline with Tween-80): 85 % of control
- T/C (dose: 150.0 mg/kg/injection, schedule: Q04DX003 (sc), vehicle: saline with Tween-80): 93 % of control
- T/C [1]: 115 % of control
- T/C (dose: 300.0 mg/kg/injection, schedule: Q04DX003 (sc), vehicle: saline with Tween-80): 80 % of control
- T/C [2]: 104 % of control
- T/C [3]: 92 % of control
- T/C (dose: 1600.0 mg/kg/injection, schedule: Q04DX003 (sc), vehicle: saline with Tween-80): 79 % of control

Compound: CNc1nc(N(C)C)nc(N(C)C)n1
- T/C (dose: 12.5 mg/kg/injection, schedule: Q04DX003 (sc), vehicle: water): 177 % of control
- T/C (dose: 15.0 mg/kg/injection, schedule: Q01DX010 (ip), vehicle: water): 55 % of control
- T/C (dose: 15.0 mg/kg/injection, schedule: Q01DX010 (sc), vehicle: water): 121 % of control
- T/C (dose: 30.0 mg/kg/injection, schedule: Q01DX010 (ip), vehicle: water): 287 % of control
- T/C (dose: 30.0 mg/kg/injection, schedule: Q01DX010 (sc), vehicle: water): 56 % of control
- T/C (dose: 50.0 mg/kg/injection, schedule: Q04DX003 (ip), vehicle: water): 67 % of control
- T/C (dose: 60.0 mg/kg/injection, schedule: Q01DX010 (ip), vehicle: water): 71 % of control
- T/C (dose: 60.0 mg/kg/injection, schedule: Q01DX010 (sc), vehicle: water): 69 % of control
- T/C (dose: 100.0 mg/kg/injection, schedule: Q04DX003 (ip), vehicle: water): 59 % of control
- T/C (dose: 100.0 mg/kg/injection, schedule: Q04DX003 (sc), vehicle: water): 114 % of control and 218 % of control
- T/C (dose: 120.0 mg/kg/injection, schedule: Q01DX010 (sc), vehicle: water): 64 % of control
- T/C (dose: 200.0 mg/kg/injection, schedule: Q04DX003 (ip), vehicle: water): 54 % of control

Compound: COc1cc([C@@H]2c3cc4c(c(O)c3C[C@H]3COC(=O)[C@@H]32)OCO4)cc(OC)c1OC
- T/C (dose: 0.25 mg/kg/injection, schedule: Q01DX010 (sc), vehicle: saline): 91 % of control
- T/C (dose: 0.5 mg/kg/injection, schedule: Q01DX010 (sc), vehicle: saline): 50 % of control
- T/C (dose: 1.0 mg/kg/injection, schedule: Q01DX010 (sc), vehicle: saline): 58 % of control
- T/C (dose: 2.0 mg/kg/injection, schedule: Q01DX010 (sc), vehicle: saline): 71 % of control and 73 % of control
- T/C (dose: 4.0 mg/kg/injection, schedule: Q01DX010 (sc), vehicle: saline): 117 % of control
- T/C (dose: 8.0 mg/kg/injection, schedule: Q01DX010 (sc), vehicle: saline): 168 % of control

Compound: CO[C@@H]1[C@H](O)CC[C@]2(CO2)[C@H]1[C@@]1(C)O[C@@H]1CC=C(C)C
- T/C (dose: 150.0 mg/kg/injection, schedule: Q04DX003 (sc), vehicle: suspension in saline): 79 % of control
- T/C (dose: 300.0 mg/kg/injection, schedule: Q04DX003 (sc), vehicle: suspension in saline): 90 % of control
- T/C (dose: 600.0 mg/kg/injection, schedule: Q04DX003 (sc), vehicle: suspension in saline): 63 % of control
- T/C (dose: 1200.0 mg/kg/injection, schedule: Q04DX003 (sc), vehicle: suspension in saline): 63 % of control

Compound: CC1(C)COCN1COCCOCN1COCC1(C)C
- T/C (dose: 200.0 mg/kg/injection, schedule: Q04DX003 (sc), vehicle: saline): 169 % of control
- T/C (dose: 400.0 mg/kg/injection, schedule: Q04DX003 (sc), vehicle: saline): 191 % of control

Compound: Nc1nncs1
- T/C [4]: 104 % of control

Compound: COc1ccc(C(=O)c2no[n+]([O-])c2C(=O)c2ccc(OC)cc2)cc1
- T/C (dose: 100.0 mg/kg/injection, schedule: Q04DX003 (sc), vehicle: saline with Tween-80): 84 % of control
- T/C [1]: 91 % of control
- T/C [2]: 99 % of control
- T/C [3]: 109 % of control

Compound: Cc1c2ccncc2c(C)c2c1[nH]c1ccccc12
- T/C (dose: 6.25 mg/kg/injection, schedule: Q01DX010 (sc), vehicle: saline): 24 % of control
- T/C [4]: 85 % of control
- T/C (dose: 50.0 mg/kg/injection, schedule: Q01DX010 (sc), vehicle: saline): 72 % of control and 75 % of control
- T/C (dose: 100.0 mg/kg/injection, schedule: Q01DX010 (sc), vehicle: saline): 59 % of control

Compound: CCC1=C[C@H]2CN(CCc3c([nH]c4ccccc34)[C@@](C(=O)OC)(c3cc4c(cc3OC)N(C)[C@H]3[C@@](O)(C(=O)OC)[C@H](OC(C)=O)[C@]5(CC)C=CCN6CC[C@]43[C@@H]65)C2)C1
- T/C (dose: 6.0 mg/kg/injection, schedule: Q04DX003 (sc), vehicle: water): 106 % of control
- T/C (dose: 12.0 mg/kg/injection, schedule: Q04DX003 (sc), vehicle: water): 89 % of control

Compound: CC1(CO)C(O)CCC2(C)C1CCC1CC3CC12CCC3(O)CO (stereo unspecified)
- T/C (dose: 6.25 mg/kg/injection, schedule: Q01DX010 (sc), vehicle: saline with Tween-80): 181 % of control
- T/C (dose: 12.5 mg/kg/injection, schedule: Q01DX010 (sc), vehicle: saline with Tween-80): 58 % of control
- T/C (dose: 25.0 mg/kg/injection, schedule: Q01DX010 (sc), vehicle: saline with Tween-80): 78 % of control
- T/C (dose: 600.0 mg/kg/injection, schedule: Q01DX010 (sc), vehicle: saline with Tween-80): 67 % of control

Compound: COc1ccc2c(c1)CCn1c(C)c(COC(=O)NC(C)C)c(COC(=O)NC(C)C)c1-2
- T/C (dose: 37.5 mg/kg/injection, schedule: Q04DX003 (sc), vehicle: distilled water + Tween-80): 65 % of control
- T/C (dose: 75.0 mg/kg/injection, schedule: Q04DX003 (sc), vehicle: distilled water + Tween-80): 64 % of control
- T/C (dose: 150.0 mg/kg/injection, schedule: Q04DX003 (sc), vehicle: distilled water + Tween-80): 55 % of control
- T/C (dose: 300.0 mg/kg/injection, schedule: Q04DX003 (sc), vehicle: distilled water + Tween-80): 63 % of control
